pIC50: −log10 of the molar value.
Experiments:
[1] = biological target: WRN helicase (core helicase motif aa N517-P1238) (Homo sapiens (Human), UniProt Q14191); experiment: WRN ATPase assay (ADP-Glo), DNA dependent ATP hydrolysis; format: biochemical; details: 3 hours pre-incubation, 300 micromolar ATP, FLAP26 ssDNA; geometric means of at least 2 determinations
Text: An ATPase assay was set up to measure the DNA dependent ATP hydrolysis activity of WRN helicase. This assay was used also to assess the inhibition properties of compounds of the invention on DNA dependent WRN ATPase activity.
The core helicase motif of the WRN protein (aa N517-P1238) was produced for this assay (protein production as described above). A 45 oligonucleotide sequence called “FLAP26” as described by Brosh et al., 2009, DOI: 10.1074/jbc.M111446200 ([…]; SEQ ID NO: 2) was purchased from IDT (Integrated DNA Technologies, Leuven, Belgium) and used as single strand DNA substrate. The ADP-Glo assay kit (Promega, Madison, WI) allowing the quantification of ADP produced in ATP hydrolysis reactions was used for setting up this assay. Time course experiments were first performed in order to determine the best enzymatic assay conditions (including buffer conditions, reaction time and concentrations of protein, ATP and DNA substrates). A typical reaction consists of 10 nM WRN protein, 0.2 nM FLAP26, and 300 micromolar ATP in the following assay buffer: 30 mM Tris pH7.5, 2 mM MgCl2, 0.02% BSA, 50 mM NaCl, 0.1% pluronic F127 prepared in DNAse free water.
To evaluate the inhibition properties of compounds of the invention, serial dilutions were prepared in DMSO (10 half log dilutions from a 10 mM DMSO solution). 50 nanoliters of each concentration was pre-incubated for 3 hours in a 384 small volume assay plate (Greiner #784075) with 2.5 microliters of a 20 nM WRN helicase protein in assay buffer with 600 micromolar ATP. Control wells were included with a “high control” (no inhibition), containing DMSO with no test compound, and “low controls” (maximal inhibition), containing buffer without protein. The reaction was started by addition of 2.5 microliters of FLAP26 at 0.4 nM and incubated for 30 minutes at room temperature. The reaction was stopped with the addition of 5 microliters of the first ADP-Glo reagent and incubated for one hour to remove the excess amount of ATP. Afterwards, 10 microliters of ATP detection reagent was added and incubated for an additional hour before reading. Luminescence output was recorded using Tecan 1000 reader, with 5 minutes delay before reading. Each concentration of compound was tested in duplicates in the assay plate.
Data analysis was carried out using an in-house developed software (Novartis Helios software application, Novartis Institutes for BioMedical Research, unpublished) using the methods described by Formenko et al., 2006, DOI: 10.1016/j.cmpb.2006.01.008. Following normalization of activity values for the wells to % inhibition (% inhibition=[(high control-sample)/(high control-low control)]×100), IC50 fitting was carried out from the duplicate determinations present on each plate according to [4]. Data analysis can also be carried out using commercially available software designed to derive IC50 values using 4-parameter fits (e.g. GraphPad Prism, XL fit). The reported IC50 values are the geometrical means of at least 2 independent replicates.

SW48 cells = experiment: Proliferation assay SW48 (CellTiterGlo, 96 hours); format: cell-based; details: Homo sapiens
Text: (§1) The colon carcinoma cell lines SW48 (RRID: CVCL_1724), HCT 116 (RRID: CVCL_0291) and SNU-407 (RRID: CVCL_5058) were obtained from ATCC. The WRN-knockdown insensitive colon carcinoma cell line DLD-1 (RRID: CVCL_0248) was obtained from the Korean Cell Line Bank (KCLB), and used to generate a derivative in which the endogenous WRN gene copies were knocked out by CRISPR-mediated editing using standard CRISPR methods. The resulting cell line, DLD1-WRN-KO, was used to assess potential off-target compound effects.
(§2) SW48, SNU-407 and DLD1-WRN-KO cells were cultured in growth medium composed of RPMI-1640 (Amimed Cat #1-41F22-1), 2 mM L-Glutamine (Amimed Cat #5-10K50), 10 mM HEPES (Gibco Cat #15630-056), 1 mM sodium pyruvate (Amimed Cat #5-60F00-H), 1× Penicillin-Streptomycin (Amimed Cat #4-01F00-H) and 10% fetal calf serum (Amimed Cat #2-01F30-G, Lot #LB11566P). HCT 116 cells were cultured in growth medium composed of McCoys 5A (Amimed catalog #1-18F01-1), 2 mM L-Glutamine (Amimed Cat #5-10K50), 1× Penicillin-Streptomycin (Amimed Cat #4-01F00-H) and 10% fetal calf serum (Amimed Cat #2-01F30-G, Lot #LB11566P). All cells were maintained at 37° C. in a humidified 5% CO2 incubator.
(§3) Following filtration through a Steriflip-NY 20 μm filter (Millipore Cat #SCNY00020), trypsinized cells were seeded in 100 microliters growth medium at 2′000 (SW48) or 1′500 (SNU-407, DLD1-WRN-KO, HCT 116) cells/well into white, clear-bottom 96-well plates (Costar Cat #3903). Three replicate plates were prepared for each compound treatment condition. In addition, one plate (termed “day 0”) was prepared to quantify the number of viable cells at the time of compound addition. Following overnight incubation at 37° C. in a humidified 5% CO2 atmosphere, eight 3-fold serial dilutions of a given compound stock (obtained at a concentration of 10 mM in DMSO and stored at 4° C.) were dispensed directly into each of the triplicate assay plates using a HP 300D non-contact Digital Dispenser (TECAN). The final concentration of DMSO was normalized to 0.1% in all wells. 96 hours after compound addition, cellular ATP levels as a surrogate for cell viability was assessed following addition of 50 microliters CellTiterGlo (Promega Cat #G7573) reagent and luminescence quantification on a MPLEX multi-mode plate-reader (TECAN) following a 10 minute incubation at room temperature. The number of viable cells in the “day 0” plate were quantified identically on the day of compound addition.
(§4) For data analysis, the assay background signal that was determined in wells containing medium, but no cells, was subtracted from all other data points prior to further calculations. The extent of growth inhibition and potential cell kill was assessed by comparing the ATP levels (measured using CellTiterGlo, Promega) in compound-treated cells with those present at the time of compound addition. To this end, the following conditional concept was programmatically applied in HELIOS, an in-house software applying a multi-step decision tree to arrive at optimal concentration response curve fits (Gubler et al, SLAS DOI: 10.1177/2472555217752140) to calculate % growth (% G) for each compound-treated well: % G=(T−V0)/V0))*100 when T<V0, and % G=(T−V0)/(V−V0)))*100 when T>V0, where V0 is the viability level at time of compound addition, while V and T represent vehicle-control and compound-treated viability levels, respectively, at the end of the compound incubation. 100%, 0% and −100% signify absence of growth inhibition, growth stasis, and complete cell kill, respectively. Compound concentrations leading to half-maximal growth inhibition (G150) and residual cell viability at the highest tested compound concentration (Data (cmax), expressed in percent) were routinely calculated. Data analysis can also be carried out using commercially available software designed to derive IC50 values using 4-parameter fits (e.g. GraphPad Prism, XL fit). […]

DLD1-WRN-KO cells = experiment: Proliferation assay DLD1-WRN-KO (CellTiterGlo, 96 hours), off-target effects; format: cell-based; details: Homo sapiens
Text: as §1, §2, §3, §4

Chain of WRN helicase (core helicase motif aa N517-P1238) (Q14191 517-1238): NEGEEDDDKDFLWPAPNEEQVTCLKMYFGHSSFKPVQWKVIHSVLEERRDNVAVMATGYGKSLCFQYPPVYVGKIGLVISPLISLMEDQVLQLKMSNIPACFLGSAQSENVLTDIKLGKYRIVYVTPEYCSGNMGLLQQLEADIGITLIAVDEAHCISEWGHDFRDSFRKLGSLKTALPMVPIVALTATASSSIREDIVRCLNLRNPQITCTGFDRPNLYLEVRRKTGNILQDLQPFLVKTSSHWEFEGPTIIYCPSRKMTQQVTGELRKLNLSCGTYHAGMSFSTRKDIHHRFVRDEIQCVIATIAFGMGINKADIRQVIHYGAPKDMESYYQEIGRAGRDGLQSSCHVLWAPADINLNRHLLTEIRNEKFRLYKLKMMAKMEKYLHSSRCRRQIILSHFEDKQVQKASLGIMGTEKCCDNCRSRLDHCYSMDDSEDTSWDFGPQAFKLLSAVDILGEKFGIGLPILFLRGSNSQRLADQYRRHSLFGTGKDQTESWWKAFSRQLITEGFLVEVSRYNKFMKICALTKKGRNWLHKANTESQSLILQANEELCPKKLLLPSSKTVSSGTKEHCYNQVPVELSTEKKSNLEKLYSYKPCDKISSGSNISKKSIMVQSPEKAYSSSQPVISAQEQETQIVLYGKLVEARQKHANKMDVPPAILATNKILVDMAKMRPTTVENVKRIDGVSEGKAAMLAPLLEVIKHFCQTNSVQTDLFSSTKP

Row | SMILES | pIC50 [1] | GI50 (SW48 cells) | GI50 (DLD1-WRN-KO cells)
1 | C[C@H]1C[C@@H](C(=O)Nc2ccc(C(F)(F)F)cc2Cl)n2c1c(N1CCN(C(=O)c3ncc4c(c3O)OCC4)CC1)c(=O)n1nc(C3=CCOCC3)nc21 [Example 5B, (7S,9S)—N-(2-chloro-4-(trifluoromethyl)phenyl)-2-(3,6-dihydro-2H-pyran-4-yl)-6-(4-(7-hydroxy-2,3-dihydrofuro[3,2-c]pyridine-6-carbonyl)piperazin-1-yl)-7-methyl-5-oxo-5,7,8,9-tetrahydropyrrolo[1,2-c][1,2,4]triazolo[1,5-a]pyrimidine-9-carboxamide] | 5.22 | 5000 nM | > 10000 nM
2 | C[C@@H]1C[C@H](C(=O)Nc2ccc(C(F)(F)F)cc2Cl)n2c1c(N1CCN(C(=O)c3nn(C)c(=O)[nH]3)CC1)c(=O)n1nc(C3=CCOCC3)nc21 [Example 7, (7R,9R)—N-(2-chloro-4-(trifluoromethyl)phenyl)-2-(3,6-dihydro-2H-pyran-4-yl)-7-methyl-6-(4-(1-methyl-5-oxo-4,5-dihydro-1H-1,2,4-triazole-3-carbonyl)piperazin-1-yl)-5-oxo-5,7,8,9-tetrahydropyrrolo[1,2-c][1,2,4]triazolo[1,5-a]pyrimidine-9-carboxamide] | 7.30 | 300 nM | > 10000 nM
3 | Cc1cc(F)c(O)c(C(=O)N2CCN(c3c4n(c5nc(C6=CCOCC6)nn5c3=O)[C@@H](C(=O)Nc3ccc(C(F)(F)F)cc3Cl)C[C@H]4C)CC2)n1 [Example 8, (7R,9R)—N-(2-chloro-4-(trifluoromethyl)phenyl)-2-(3,6-dihydro-2H-pyran-4-yl)-6-(4-(4-fluoro-3-hydroxy-6-methylpicolinoyl)piperazin-1-yl)-7-methyl-5-oxo-5,7,8,9-tetrahydropyrrolo[1,2-c][1,2,4]triazolo[1,5-a]pyrimidine-9-carboxamide] | 7.70 | 20 nM | > 10000 nM
4 | C[C@@H]1C[C@H](C(=O)Nc2ccc(C(F)(F)F)cc2Cl)n2c1c(N1CCN(C(=O)c3c(O)ccc4nccn34)CC1)c(=O)n1nc(C3=CCOCC3)nc21 [Example 9, (7R,9R)—N-(2-chloro-4-(trifluoromethyl)phenyl)-2-(3,6-dihydro-2H-pyran-4-yl)-6-(4-(6-hydroxyimidazo[1,2-a]pyridine-5-carbonyl)piperazin-1-yl)-7-methyl-5-oxo-5,7,8,9-tetrahydropyrrolo[1,2-c][1,2,4]triazolo[1,5-a]pyrimidine-9-carboxamide] | 7.30 | 60 nM | > 10000 nM
5 | Cc1nccc(C(=O)N2CCN(c3c4n(c5nc(C6=CCOCC6)nn5c3=O)[C@@H](C(=O)Nc3ccc(C(F)(F)F)cc3Cl)C[C@H]4C)CC2)c1O [Example 10, (7R,9R)—N-(2-chloro-4-(trifluoromethyl)phenyl)-2-(3,6-dihydro-2H-pyran-4-yl)-6-(4-(3-hydroxy-2-methylisonicotinoyl)piperazin-1-yl)-7-methyl-5-oxo-5,7,8,9-tetrahydropyrrolo[1,2-c][1,2,4]triazolo[1,5-a]pyrimidine-9-carboxamide] | 7.05 | 200 nM | > 10000 nM
6 | C[C@@H]1C[C@H](C(=O)Nc2ccc(C(F)(F)F)cc2Cl)n2c1c(N1CCN(C(=O)c3ncccc3O)CC1)c(=O)n1nc(C3=CCOCC3)nc21 [Example 11, (7R,9R)—N-(2-chloro-4-(trifluoromethyl)phenyl)-2-(3,6-dihydro-2H-pyran-4-yl)-6-(4-(3-hydroxypicolinoyl)piperazin-1-yl)-7-methyl-5-oxo-5,7,8,9-tetrahydropyrrolo[1,2-c][1,2,4]triazolo[1,5-a]pyrimidine-9-carboxamide] | 7.30 | 40 nM | > 10000 nM

Further lines, results first:

Row | pIC50 [1] | GI50 (SW48 cells) | GI50 (DLD1-WRN-KO cells) | SMILES
7 | 7.70 | 20 nM | > 10000 nM | C[C@@H]1C[C@H](C(=O)Nc2ccc(C(F)(F)F)cc2Cl)n2c1c(N1CCN(C(=O)c3nccc(F)c3O)CC1)c(=O)n1nc(C3=CCOCC3)nc21 [Example 6A, (7R,9R)—N-(2-chloro-4-(trifluoromethyl)phenyl)-2-(3,6-dihydro-2H-pyran-4-yl)-6-(4-(4-fluoro-3-hydroxypicolinoyl)piperazin-1-yl)-7-methyl-5-oxo-5,7,8,9-tetrahydropyrrolo[1,2-c][1,2,4]triazolo[1,5-a]pyrimidine-9-carboxamide]
8 | 5.70 | 3000 nM | > 10000 nM | C[C@H]1C[C@@H](C(=O)Nc2ccc(C(F)(F)F)cc2Cl)n2c1c(N1CCN(C(=O)c3nccc(F)c3O)CC1)c(=O)n1nc(C3=CCOCC3)nc21 [Example 6B, (7S,9S)—N-(2-chloro-4-(trifluoromethyl)phenyl)-2-(3,6-dihydro-2H-pyran-4-yl)-6-(4-(4-fluoro-3-hydroxypicolinoyl)piperazin-1-yl)-7-methyl-5-oxo-5,7,8,9-tetrahydropyrrolo[1,2-c][1,2,4]triazolo[1,5-a]pyrimidine-9-carboxamide]

Reference: patent publication US20240245694A1, “Tricyclic Compounds and their Uses” (Novartis AG, priority 2022, published 2024)
